Where “and” joins values, the source holds several entries; their conditions need not be identical. Equal values may be shown once. Read-outs that look alike come from different tables or passages of the source.
What was measured:
IL-10 = IL-10 induction assay; assay type: cell-based; settings: Homo sapiens, PBMC
From the text: 6. The IL-10 Induction Assay
This is an in vitro efficacy assay for psoriasis, abscess and adhesion. Psoriasis involves both keratinocytes and immune cells. IL-10 is a unique cytokine because it is anti-inflammatory and immunosuppressive. This assay tells us whether a VDRM is able to function as an agonist in PBMCs ([…]) or not.
(6) Materials and Method for Human IL-10 Induction Assay:
Isolation of Peripheral Blood Mononuclear Cells (PBMCs):
B. Prepare sterile tubes with ficol.
C. Add diluted blood to tubes.
E. Discard the top layer and collect the cells from middle layer.
F. Divide all cells into four tubes and add media.
H. Aspirate off media and resuspend.
J. Centrifuge. at 1200 rpm for 10 minutes.
M. Dissolve PHA in water.
N. Plate TPA/PHA treated PBMCs in well plates.
Sample Collection and Assay:
S. Remove all the cells by centrifugation and assay the supernatant for IL-10 by immunoassay.
1) T. Perform […] using anti-human IL-10 antibody coated beads, as described by the manufacturer (Linco Research Inc., St. Charles, Mo.).

KERtr cells = experiment: Keratinocyte proliferation assay; assay type: cell-based; settings: Homo sapiens, read-out: Kera. Prolif. IC50
Protocol: 5. The Keratinocyte Proliferation Assay
This Assay is indicative for the treatment of psoriasis.
(5) The Keratinocyte Proliferation Assay:
KERtr cells (Human skin keratinocyte transformed with a retrovirus vector, obtained from ATCC) were plated in 96-well flat-bottomed plates (3000 cells/well) in 100 μl keratinocyte serum free medium supplemented with bovine pituitary extract in the absence of EGF (Life Technologies, Rockville, Md.) and incubated at 37° C. for two days. The cells were treated with various concentrations of VDR ligands (ten-fold serial dilution from 10,000 nM to 0.1 nM in triplicate), dissolved in 100 μl keratinocyte serum free medium supplemented with bovine pituitary extract in the absence of EGF and incubated at 37° C. for 72 hr. […] Potency values (IC50) values were determined as the concentration (nM) of compound that elicited a half-maximal response.

female DBF mice = experiment: Mouse hypercalcemia assay; settings: oral gavage for 6 days
From the text: The Mouse Hypercalcemia Assay
The Mouse Hypercalcemia Assay is a six day hypercalcemia test for toxicity and selectivity.
(4) Materials and Method for the Mouse Hypercalcemia Assay:
Weanling, virus-antibody-free, five to six weeks old female DBF mice (Harlan, Indianapolis, Ind.) are used for all the studies. Animals are allowed to acclimate to local vivarium conditions for 2 days. […] The animals then are divided into groups with 4-5 mice per group. Different doses of test compounds prepared in 10% Ethanol and 90% sesame oil are administered to mice orally via gavage for 6 days. 1α-25(OH)2D3 0.5 μg/kg/d was also given to one group of mice as the positive control. […] Raw data of group differences is assessed by analysis of variance (ANOVA) using Fisher's protected least significant difference (PLSD) where the significance level was P<0.05.

VDR = biological target: T1, VDR (Homo sapiens, UniProt P11473); experiment: VDR CTF (Caco-2 cell co-transfection) assay; assay type: cell-based; settings: Caco-2 cells, pGal4-VDR-LBD co-transfection, luciferase; several values separated by /
T1 construct: the receptor expression vector pGal4-VDR-LBD (10 ng); expressed in transfected cells; host or cells: Caco-2 cells
T1 sequence (P11473 127-423 limits assumed): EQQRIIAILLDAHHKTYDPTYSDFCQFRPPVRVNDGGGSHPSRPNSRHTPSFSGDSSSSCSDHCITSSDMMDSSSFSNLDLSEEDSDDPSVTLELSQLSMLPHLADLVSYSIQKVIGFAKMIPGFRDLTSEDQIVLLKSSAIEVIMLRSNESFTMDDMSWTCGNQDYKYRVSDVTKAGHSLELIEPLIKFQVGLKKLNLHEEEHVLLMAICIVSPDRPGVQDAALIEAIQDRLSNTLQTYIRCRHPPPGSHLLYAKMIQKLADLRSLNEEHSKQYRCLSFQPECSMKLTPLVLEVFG
Protocol: 2. The Caco-2 Cell Co-Transfection Assay:
The Caco-2 cell assay is an indicator for the undesirable condition of hypercalcemia. This co-transfection assay is a surrogate assay for in vivo calcemic activity of VDR ligands. […] Preferred assay results are greater than 1000 nM.
(2) Materials and Method for the Caco-2 Cell Assay:
Caco-2 cells, grown in phenol red free, DMEM (Invitrogen, Carlsbad, Calif.) containing 10% charcoal-stripped FCS (Hyclone, Logan, Utah), were transfected with Fugene 6 reagent (Roche Diagnostics, Indianapolis, Ind.). Cells (5000/well) were plated 18 h before transfection in a 96 well plate. The Cells were transfected with Gal4-responsive reporter pFRLuc (150 ng, Stratagene, La Jolla Calif.) and the receptor expression vector pGal4-VDR-LBD (10 ng), along with Fugene 6 reagent (0.2 μl/well). The DNA-Fugene complex was formed by incubating the mixture for 30 min at room temperature. The cells were transfected in triplicate for 5 h, and treated with various concentrations of VDR ligands (form 0.01 nM to 10,000 nM concentration range) 18 h post-transfection. The luciferase activity was quantified using Steady-Glo reagent kit (Promega, Madison, Wis.) as per manufacturer's specifications.

rat osteocalcin promoter = experiment: OCN (osteocalcin) promoter assay; assay type: cell-based; settings: RG-15 (ROS 17/2.8) cells
Protocol: 3. The OCN (Osteocalcin) Promoter Assay
The OCN Promoter Assay is an indicator and marker for osteoporosis. […] Preferred assay results are less than 50 nM.
(3) Materials and Method for The OCN Promoter Assay:
The activation of osteocalcin by VDR ligands was evaluated in a rat osteoblast-like cell line RG-15 (ROS 17/2.8) stably expressing rat osteocalcin promoter fused with luciferase reporter gene. […] Confluent RG-15 cells maintained in DMEM/F-12 medium (3:1) containing 5% FBS, 300 μg/ml G418 and at 37° C. under 5% CO2/95% air atmosphere were trypsinized (0.25% trypsin) and plated into white opaque 96-well cell culture plates (25000 cells/well). After 24 hr, cells (in DMEM/F-12 medium+2% FBS) were treated with various concentrations of compounds, dissolved in DMSO. The final DMSO concentration remained at 0.01% (v/v). After 48 hr treatment, the medium was removed, cells were lysed with 50 μl of lysis buffer (From Luciferase reporter assay system, Roche Diagnostics, Indianapolis, Ind.) and assayed for luciferase activity using the Luciferase Reporter Gene Assay kit from Boehringer Mannheim as per manufacturer's specifications.

RXR-VDR heterodimer = biological target: T2, RXR-VDR heterodimer (Homo sapiens, UniProt P11473); experiment: RXR-VDR heterodimerization assay (SaOS-2 cells); assay type: cell-based; settings: Gal4-RXR-DEF/VP16-VDR-LBD luciferase reporter, several values in a cell separated by /
T2 construct: Add the Gal4-RXR-DEF and VP16-VDR-LBD; expressed in transfected cells; host or cells: SaOS-2 cells
T2 sequence (P11473 127-423 limits assumed): T1 sequence (P11473 127-423 limits assumed)
T2 sequence (P19793 201-462 partner limits assumed): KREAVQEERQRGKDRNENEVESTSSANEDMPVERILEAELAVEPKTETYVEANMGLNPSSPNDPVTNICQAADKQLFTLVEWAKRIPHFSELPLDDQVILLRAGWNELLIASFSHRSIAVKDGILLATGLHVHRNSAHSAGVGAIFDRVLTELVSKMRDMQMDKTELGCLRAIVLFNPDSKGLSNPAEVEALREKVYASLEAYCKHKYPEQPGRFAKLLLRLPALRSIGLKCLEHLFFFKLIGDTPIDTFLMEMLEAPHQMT
Protocol: 1. The RXR-VDR Heterodimer Assay:
This assay provides the VDR activity of a test compound.
(1) Materials and Method for RXR-VDR Heterodimerization Assay:
Luciferase Assay Reagent: • Use Steady-Glo Luciferase Reagent from Promega (Cat #E2550) Consists of: a. E2533 Assay Substrate, lyopholized product and b. E2543 Assay Buffer. • Thaw at room temperature • Store Cell Harvesting Aspirate media from culture flask, rinse cells with HBSS and aspirate. Add trypsin and incubate. When cells appear detached, resuspend cells in growth media. Transfer into a new flask with fresh growth media for passaging the cells. Plate well plates and two extra plates A. Cell Count Mix the cell suspension using pipette Use Hematocytometer to count the cells Load cell suspension onto the hemocytometer chamber Count cells. […] In sterile flask add cell suspension to plating media. Mix. Add cells/well. Place the cells in the incubator. Cells should be about 75% confluent prior to transfection. DAY 2: Transfection Step 1: DNA and Media Add plain DMEM media to tubes for mixing the DNA Add the Reporter gene pFR-LUC Add the Gal4-RXR-DEF and VP16-VDR-LBD Step 2: FuGENE and Media Prepare plain DMEM media in a ubes for mixing FuGENE Add FuGENE 6 Transfection Reagent Incubate Step 3: FuGENE, DNA and Media Complex Add FuGENE Media complex from step 2 to DNA Media complex from step 1 Incubate Step 4: FuGENE, DNA and Media Complex to-well plate Add FuGENE-DNA-Media complex from step 3 to each plate Incubate. […] Day 4: Luciferase Assay Read the plates after drug treatment Remove part of media from all the wells and leave remainder Add Steady-Glo Luciferase Reagent mixture/wells Incubate Count each well using a Luminescence counter, Top Count NXT by Packard
Set a delay between plates to reduce the background.

[1] = TPA/PHA stimulated human PBMCs, IL-10 in supernatant by immunoassay, several values separated by /
[2] = 72 h, BrdU incorporation, several values separated by /
[3] = serum ionized calcium 6 hours after last dosing
[4] = Rattus norvegicus, 48 h, 48 hr treatment, luciferase, several values separated by /
[5] = comparison compounds, human PBMCs
[6] = Rattus norvegicus, comparison compounds
[7] = 48 hr treatment, luciferase, several values separated by /

| Compound | IC50 (IL-10; [1]) [nM] | IC50 (KERtr cells; [2]) [nM] | Mouse Hypercal (female DBF mice; [3]) [µg/kg/day] | EC50 (VDR) [nM] | EC50 (rat osteocalcin promoter; [4]) [nM] | IC50 (IL-10; [5]) [nM] | IC50 (KERtr cells; comparison compounds) [nM] | Mouse Hypercal (female DBF mice; comparison compounds) [µg/kg/day] | EC50 (rat osteocalcin promoter; [6]) [nM] | EC50 (rat osteocalcin promoter; [7]) [nM] | EC50 (RXR-VDR heterodimer) |
| --- | --- | --- | --- | --- | --- | --- | --- | --- | --- | --- | --- |
| CCc1cc(C(CC)(CC)c2cc3cc(C(=O)O)ccc3o2)ccc1OCC(=O)C(C)(C)C [Ex. 12] | 49 | 16 | >1000 | 515 | 0.7 | – | – | – | – | – | – |
| CCC(CC)(c1ccc(OCC(=O)C(C)(C)C)c(C)c1)c1ccc2oc(C(=O)O)cc2c1 [Ex 30, 5-{1-[4-(3,3-dimethyl-2-oxo-butoxy)-3-methyl-phenyl]-1-ethyl-propyl}-benzofuran-2-carboxylic acid] | 25 | 9 | >1000 | 364 | 0.3 | – | – | – | – | – | – |
| CCC(CC)(c1ccc(OCC(O)CO)c(C)c1)c1ccc(OCC(O)C(C)(C)C)c(C)c1 (centres unmarked) [BB, 3-(4-{1-Ethyl-1-[4-(2-hydroxy-3,3-dimethyl-butoxy)-3-methyl-phenyl]-propyl}-2-methyl-phenoxy)-propane-1,2-diol, reference compound] | – | – | – | – | – | 28 | 10 | 20 | 8.24 | – | – |
| CCC(CC)(c1ccc(OCC(O)C(C)(C)C)c(C)c1)c1cc2ccc(C(=O)O)cc2o1 (centres unmarked) [Ex 19, 2-{1-Ethyl-1-[4-(2-hydroxy-3,3-dimethyl-butoxy)-3-methyl-phenyl]-propyl}-benzofuran-6-carboxylic acid] | 34 | 8 | – | 620 | 1.4 | – | – | – | – | 0.9 | – |
| CCC(CC)(c1ccc(OCC(=O)C(C)(C)C)c(C)c1)c1cc(C)c2oc(C(=O)O)cc2c1 [Ex 21, 5-{1-[4-(3,3-dimethyl-2-oxo-butoxy)-3-methyl-phenyl]-1-ethyl-propyl}-7-methyl-benzofuran-2-carboxylic acid] | 80 | 18 | >1000 | 462 | 2 | – | – | – | – | 1 | 50 nM and 5 nM |
| CCC(CC)(c1ccc(OCC(=O)C(C)(C)C)c(C(C)C)c1)c1cc2cc(C(=O)O)ccc2o1 [Ex 17] | 95 | 13 | – | 589 | – | – | – | – | – | – | – |
| C=C1/C(=C\C=C2/CCC[C@]3(C)[C@@H]([C@H](C)/C=C/[C@@H](O)C4CC4)CC[C@@H]23)C[C@@H](O)C[C@@H]1O [FF, calcipotriol, reference compound] | – | – | – | – | – | 0.5 | 103 | – | 0.28 | – | – |
| CCC(CC)(c1ccc(OCC(O)C(C)(C)C)c(C)c1)c1ccc2oc(C(=O)O)cc2c1 (centres unmarked) [Ex 31, 5-{1-ethyl-1-[4-(2-hydroxy-3,3-dimethyl-butoxy)-3-methyl-phenyl]-propyl}-benzofuran-2-carboxylic acid] | 5.4 | 1 | – | 279 | 0.5 | – | – | – | – | – | 12 nM |
| CCC(CC)(c1ccc(OCC(=O)C(C)(C)C)c(C)c1)c1cc2cc(C(=O)NCC(=O)O)ccc2o1 [Ex 7, [(2-{1-[4-(3,3-Dimethyl-2-oxo-butoxy)-3-methyl-phenyl]-1-ethylpropyl}-benzofuran-5-carbonyl)-amino]-acetic acid] | 24 | 5 | >300 | 412 | 0.4 | – | – | – | – | – | – |
| CCC(CC)(c1ccc(OCC(=O)C(C)(C)C)c(C)c1)c1cc2cc(C(=O)Nc3nn[nH]n3)ccc2o1 [Ex. 11, 2-{1-[4-(3,3-dimethyl-2-oxo-butoxy)-3-methyl-phenyl]-1-ethyl-propyl}-benzofuran-5-carboxylic acid (2H-tetrazol-5-yl)-amide] | > 2000 | 9 | >1000 | 819 | – | – | – | – | – | – | 730 nM |
| CCC(CC)(c1ccc(OCC(=O)C(C)(C)C)c(C)c1)c1cc2cc(C(=O)O)ccc2o1 [Ex. 2] | – | 12 | >1000 | 677 | 3 | – | – | – | – | – | 75 nM |
| CCC(CC)(c1ccc(OCC(=O)C(C)(C)C)c(C)c1)c1cc2ccc(C(=O)O)cc2o1 [Ex 18, 2-{1-[4-(3,3-dimethyl-2-oxo-butoxy)-3-methyl-phenyl]-1-ethyl-propyl}-benzofuran-6-carboxylic acid] | – | 25 | >300 | 472 | 2 | – | – | – | – | – | – |
